The NIST ThermoML archive (doi:10.1016/j.jct.2015.03.001)
Numbers after ± are expanded uncertainties.

Assay: relative permittivity at various frequencies (dimensionless); xn = mol fraction of the nth substance listed
Details: 283.15 K; 99 kPa; Liquid; Frequency=2 MHz; Parallel plate capacitor; x1 = 1

Point of comparison: `CCCCCCC` [heptane] + CC(C)CCl, relative permittivity 1.943 ± 0.019. Against it:
- CCCCCCC [heptane] + CCC(C)Cl — the same, 1.943 ± 0.019
- CCCCCCC [heptane] + CC(C)(C)Cl — the same, 1.943 ± 0.019
- CCCCCC [hexane] + CC(C)CCl — lower, 1.905 ± 0.019
- CCCCCC [hexane] + CC(C)(C)Cl — lower, 1.905 ± 0.019
- CCCCCCC [heptane] + CCCCCl — the same, 1.943 ± 0.019
- CCCCCC [hexane] + CCC(C)Cl — lower, 1.905 ± 0.019
- CCCCCC [hexane] + CCCCCl — lower, 1.905 ± 0.019

Same assay, conditions: 298.15 K; 99 kPa; Liquid; Frequency=2 MHz; Parallel plate capacitor; x1 = 1

Point of comparison: `CCCCCCC` [heptane] + CC(C)CCl, relative permittivity 1.923 ± 0.019. Against it:
- CCCCCCC [heptane] + CCC(C)Cl — the same, 1.923 ± 0.019
- CCCCCCC [heptane] + CC(C)(C)Cl — the same, 1.923 ± 0.019
- CCCCCC [hexane] + CC(C)CCl — within error, 1.892 ± 0.019
- CCCCCC [hexane] + CC(C)(C)Cl — within error, 1.892 ± 0.019
- CCCCCCC [heptane] + CCCCCl — the same, 1.923 ± 0.019
- CCCCCC [hexane] + CCC(C)Cl — within error, 1.892 ± 0.019
- CCCCCC [hexane] + CCCCCl — within error, 1.892 ± 0.019

Same assay, conditions: 313.15 K; 99 kPa; Liquid; Frequency=2 MHz; Parallel plate capacitor; x1 = 1

Point of comparison: `CCCCCC` [hexane] + CC(C)CCl, relative permittivity 1.873 ± 0.019. Against it:
- CCCCCCC [heptane] + CCC(C)Cl — within error, 1.902 ± 0.019
- CCCCCCC [heptane] + CC(C)(C)Cl — within error, 1.902 ± 0.019
- CCCCCC [hexane] + CC(C)(C)Cl — the same, 1.873 ± 0.019
- CCCCCCC [heptane] + CCCCCl — within error, 1.902 ± 0.019
- CCCCCC [hexane] + CCC(C)Cl — the same, 1.873 ± 0.019
- CCCCCCC [heptane] + CC(C)CCl — within error, 1.902 ± 0.019
- CCCCCC [hexane] + CCCCCl — the same, 1.873 ± 0.019

Assay: relative permittivity at various frequencies (dimensionless)
Details: 283.15 K; 99 kPa; Liquid; Frequency=2 MHz; Parallel plate capacitor

Point of comparison: `CC(C)CCl` [1-chloro-2-methylpropane], relative permittivity 7.472 ± 0.075. Against it:
- CCCCCC [hexane] — lower, 1.905 ± 0.019
- CCCCCCC [heptane] — lower, 1.943 ± 0.019
- CCC(C)Cl (configuration not stated) [2-chlorobutane] — higher, 9.323 ± 0.093
- CC(C)(C)Cl [2-chloro-2-methylpropane] — higher, 10.429 ± 0.1
- CCCCCl [1-chlorobutane] — within error, 7.552 ± 0.076

Same assay, conditions: 298.15 K; 99 kPa; Liquid; Frequency=2 MHz; Parallel plate capacitor

Point of comparison: `CCCCCl` [1-chlorobutane], relative permittivity 7.157 ± 0.072. Against it:
- CCCCCC [hexane] — lower, 1.892 ± 0.019
- CCCCCCC [heptane] — lower, 1.923 ± 0.019
- CCC(C)Cl (configuration not stated) [2-chlorobutane] — higher, 8.652 ± 0.087
- CC(C)(C)Cl [2-chloro-2-methylpropane] — higher, 9.67 ± 0.097
- CC(C)CCl [1-chloro-2-methylpropane] — within error, 7.074 ± 0.071

Same assay, conditions: 313.15 K; 99 kPa; Liquid; Frequency=2 MHz; Parallel plate capacitor

Point of comparison: `CC(C)(C)Cl` [2-chloro-2-methylpropane], relative permittivity 8.952 ± 0.09. Against it:
- CCCCCC [hexane] — lower, 1.873 ± 0.019
- CCCCCCC [heptane] — lower, 1.902 ± 0.019
- CCC(C)Cl (configuration not stated) [2-chlorobutane] — lower, 8.07 ± 0.081
- CC(C)CCl [1-chloro-2-methylpropane] — lower, 6.657 ± 0.067
- CCCCCl [1-chlorobutane] — lower, 6.757 ± 0.068

Assay: refractive index (Na D-line) (dimensionless)
Details: 298.15 K; 101.33 kPa; Liquid; Abbe refractometer

For `CCCCCC` [hexane], the refractive index was 1.37223 ± 0.00031.

Assay: refractive index (Na D-line) (dimensionless); xn = mol fraction of the nth substance listed
Details: 283.15 K; 99 kPa; Liquid; Abbe refractometer; x1 = 1

Point of comparison: `CCCCCCC` [heptane] + CC(C)CCl, refractive index 1.3929 ± 0.00031. Against it:
- CCCCCCC [heptane] + CCC(C)Cl — the same, 1.3929 ± 0.00031
- CCCCCCC [heptane] + CC(C)(C)Cl — the same, 1.3929 ± 0.00031
- CCCCCC [hexane] + CC(C)CCl — lower, 1.3805 ± 0.00031
- CCCCCC [hexane] + CC(C)(C)Cl — lower, 1.3805 ± 0.00031
- CCCCCCC [heptane] + CCCCCl — the same, 1.3929 ± 0.00031
- CCCCCC [hexane] + CCC(C)Cl — lower, 1.3805 ± 0.00031
- CCCCCC [hexane] + CCCCCl — lower, 1.3805 ± 0.00031

Same assay, conditions: 298.15 K; 99 kPa; Liquid; Abbe refractometer; x1 = 1

Point of comparison: `CCCCCC` [hexane] + CC(C)(C)Cl, refractive index 1.37223 ± 0.00031. Against it:
- CCCCCCC [heptane] + CCC(C)Cl — higher, 1.3852 ± 0.00031
- CCCCCCC [heptane] + CC(C)(C)Cl — higher, 1.3852 ± 0.00031
- CCCCCC [hexane] + CC(C)CCl — the same, 1.37223 ± 0.00031
- CCCCCCC [heptane] + CCCCCl — higher, 1.3852 ± 0.00031
- CCCCCC [hexane] + CCC(C)Cl — the same, 1.37223 ± 0.00031
- CCCCCCC [heptane] + CC(C)CCl — higher, 1.3852 ± 0.00031
- CCCCCC [hexane] + CCCCCl — the same, 1.37223 ± 0.00031

Same assay, conditions: 313.15 K; 99 kPa; Liquid; Abbe refractometer; x1 = 1

Point of comparison: `CCCCCCC` [heptane] + CC(C)(C)Cl, refractive index 1.37735 ± 0.00031. Against it:
- CCCCCCC [heptane] + CCC(C)Cl — the same, 1.37735 ± 0.00031
- CCCCCC [hexane] + CC(C)CCl — lower, 1.36391 ± 0.00031
- CCCCCC [hexane] + CC(C)(C)Cl — lower, 1.36391 ± 0.00031
- CCCCCCC [heptane] + CCCCCl — the same, 1.37735 ± 0.00031
- CCCCCC [hexane] + CCC(C)Cl — lower, 1.36391 ± 0.00031
- CCCCCCC [heptane] + CC(C)CCl — the same, 1.37735 ± 0.00031
- CCCCCC [hexane] + CCCCCl — lower, 1.36391 ± 0.00031
